Counter-ions that a name gives are not always drawn.
Legend:
[1] = test system: siRNA-mediated mRNA degradation; experiment: cell-based reporter screen: human 293 cells stably expressing GFP plus siRNA hairpin against GFP; conditions: for Modulation Effect (inhibit or enhance siRNA-mediated mRNA degradation): Table 1
Procedure: FIG. 2 discloses one embodiment of the cell-based reporter system of the invention. In this example, a human 293-cell line stably expressing a reporter gene, GFP, was used. This cell line was further transfected with a construct that expresses siRNA hairpin against GFP, which can decrease the level of GFP expression. Individual clones were isolated with greatly (although not completely) reduced GFP expression.
Using the above-identified clones, a screen was performed using The Spectrum Collection (MicroSource Discovery Systems, Inc., Gaylordsville, Conn., United States of America), which contains 2000 biologically active and structurally diverse compounds from libraries of known drugs, experimental bioactives, and pure natural products. For example, in one embodiment, a pilot screen of this library identified one inhibitor and one enhancer of siRNA-mediated mRNA degradation.
To identify the chemical compounds that modulate the siRNA and miRNA pathway, a screening strategy was used. A human 293-cell line stably expressing a reporter gene, GFP, was used. This cell line was further transfected with a construct that expresses siRNA hairpin against GFP, which could knock down the expression of GFP. […] Using these clones, a screen was performed using The Spectrum Collection, which contains 2000 biologically active and structurally diverse compounds from libraries of known drugs, experimental bioactives, and pure natural products.
Human 293 cells stably expressing a reporter gene, GFP, were further transfected with a construct that expresses an siRNA hairpin against GFP, which results in the knock-down of the expression of GFP. Transfected cells containing the siRNA suppressed GPF expression were split and then treated with an effective amount of enoxacin (FIG. 4, second panel) and were grown for a period of 24-48 hours.

[2] = test system: Clone#3, 293-EGFP-siGFP cells; experiment: plate-reader chemical library screen, GFP signal in Clone#3 cells; assay type: cell-based, human; conditions: for Clone#3, 293-EGFP-siGFP cells GFP signal intensity with Drug alone: plate reader
Description: Further, in some embodiments, additional screens using the same library can be performed to identify other modulators of the siRNA and the miRNA pathways. In some embodiments, instead of examining the GFP signal visually under a microscope, the GFP signal can be quantified using an automatic plate reader. In such embodiments, two additional rounds of screening can be performed. In the first round of screening, the clones can be treated with compounds from a library, e.g., The Spectrum Collection, alone and the GFP level can be quantified after a period of time, e.g., 48 hours. In the second round of screening, the clones can be treated with compounds from a library, e.g., The Spectrum Collection, in the presence of 50 μM RNAi-E, i.e., enoxacin. This assay enables compounds that can modulate the activity of RNAi-E to be identified.
(§1) The presently disclosed chemical library also was screened using a plate reader to quantify the GFP signal intensity. The following screens were conducted: (1) repeating chemical screen using plate reader to quantify the GFP signal (50 mM each drug); (2) treating cells with 50 mM RNAi-I (30 mM each additional drug); and treating cells with […] (30 mM each additional drug).
(§2) For each screen, two types of cells were used: Clone#3 and EGFP. Clone#3 cells are 293-EGFP-siGFP and could be used to identify the modulators of the RNAi pathway. EGFP cells are 293-EGFP only and were used as a control to eliminate the compounds that could kill the cells or interfere GFP signals that are not related to RNAi pathway. The results for each screen are summarized in Table 2 and Table 3, respectively.
(§3) In these three screens, compounds were identified that could either enhance or inhibit RNAi activity in Clone#3, but had no effect on EGFP cells, which would indicate that these compounds might specifically work on RNAi pathway. The modulation of RNAi activity by these compounds was calculated as the percentage of GFP signal to Clone#3 control cells.

EGFP, 293-EGFP cells = experiment: plate-reader chemical library screen, GFP signal in control EGFP cells; assay type: cell-based, human; conditions: for EGFP, 293-EGFP cells With RNAi-E / EGFP, 293-EGFP cells Drug alone: GFP signal
Procedure: as §1, §2, §3

tumor cell models = conditions: cited from earlier work
[3] = test system: shRNA against Luciferase mRNA; experiment: GL-3 luciferase reporter in cells expressing shRNA against luciferase; assay type: cell-based; conditions: FIG. 5
Description: In this example, a luciferase reporter construct GL-3 was transfected into the cells expressing shRNA against Luciferase mRNA.

[4] = 50 mM RNAi-E, 30 mM each additional drug
[5] = 50 mM RNAi-E, 30 mM each additional drug, values given as decimals
[6] = 50 mM each drug, values given as decimals

Row | Structure (SMILES) | Modulation Effect (inhibit or enhance siRNA-mediated mRNA degradation) [1] | Clone#3, 293-EGFP-siGFP cells GFP signal intensity with Drug and RNAi-E [2, 4] | Clone#3, 293-EGFP-siGFP cells GFP signal intensity with Drug alone ([2]; 50 mM each drug) | Effect ([2]; Table 2) | Effect ([2]; as listed in Table 3) | EGFP, 293-EGFP cells With RNAi-E (EGFP, 293-EGFP cells; [4]) | EGFP, 293-EGFP cells Drug alone (EGFP, 293-EGFP cells; 50 mM each drug) | also measured
1 | O=C(O)CCC(=O)c1ccc(-c2ccccc2)cc1 [Fenbufen] | Enhancer | 17801864.5 | 26499027 | Enhancer | Enhancer | 191729340 | 204633204 | –
2 | O=C(NCCN(CCNC(=O)c1cc(S(=O)(=O)O)c2cccnc2c1O)CCNC(=O)c1cc(S(=O)(=O)O)c2cccnc2c1O)c1cc(S(=O)(=O)O)c2cccnc2c1O [OTX, O-trensox] | – | – | – | – | – | – | – | anti-proliferative activity (tumor cell models): anti-proliferative activity
3 | Cc1ccc(/C(=C\CN2CCCC2)c2ccccn2)cc1 [Triprolidine Hydrochloride] | – | 19639902.5 | 26791778.5 | – | – | 202110668 | 202102776 | –
4 | CC(=O)N(O)CCCCCNC(=O)CCC(=O)N(O)CCCCCNC(=O)CCC(=O)N(O)CCCCCN [Deferoxamine Mesylate] | – | 12987131 | 15874023.8 | – | – | 194519648 | 194929488 | –
5 | COc1cc(C(=O)NCc2ccc(OCCN(C)C)cc2)cc(OC)c1OC [trimethobenzamide] | – | – | – | – | – | – | – | siRNA-mediated mRNA degradation and gene knock-down ([1]; pilot screen of The Spectrum Collection, FIG. 3, FIG. 4): inhibit siRNA-mediated mRNA degradation and gene knock-down
6 | NC(=S)NN=Cc1ccc(O)cn1 [5-HP, 5-hydroxypyridine-2-carboxaldehyde thiosemicarbazone] | – | – | – | – | – | – | – | anti-proliferative activity (tumor cell models): anti-proliferative activity
7 | CC(=O)O[C@H]1C[C@@]2(C)[C@@H](C[C@@H](O)[C@H]3[C@@]4(C)CC[C@@H](O)[C@@H](C)[C@@H]4CC[C@@]32C)/C1=C(\CCC=C(C)C)C(=O)O [Fusidic Acid] | Enhancer | 18581363.5 | 27803206.5 | Enhancer | Enhancer | 192354884 | 229560272 | –
8 | CC(C)C[C@H]1C(=O)N2CCC[C@H]2[C@]2(O)O[C@](NC(=O)[C@@H]3C=C4c5cccc6[nH]c(Br)c(c56)C[C@H]4N(C)C3)(C(C)C)C(=O)N12 [Bromocriptine Mesylate] | – | 10893798 | 7607590 | – | – | 136409552 | 132392840 | –
9 | C=C[C@@]1(C)CC(=O)[C@]2(O)[C@@]3(C)[C@@H](O)CCC(C)(C)[C@@H]3[C@H](O)[C@H](OC(C)=O)[C@@]2(C)O1 [Colforsin] | Inhibitor | – | – | Inhibitor | Inhibitor | – | – | –
10 | NC(=S)NN=Cc1ncccc1N [Triapine, 3-aminopyridine-2-carboxaldehyde thiosemicarbazone] | – | – | – | – | – | – | – | activity against tumor cell models (tumor cell models): has activity against a variety of tumor cell models; anti-proliferative activity (tumor cell models): anti-proliferative activity
11 | COc1cc2c(cc1OC)C(=O)OC2 [Metameconine] | Inhibitor | – | – | Inhibitor | Inhibitor | – | – | –
12 | CC(=O)N(O)CCCCCNC(=O)CCC(=O)N(O)CCCCCNC(=O)CCC(=O)N(O)CCCCCN [desferrioxamine] | – | – | – | – | – | – | – | anti-proliferative activity (tumor cell models): anti-proliferative activity; sensitivity of aggressive tumors to Fe chelation therapy (tumor cell models; neuroblastoma (NB) and leukemia, in vitro, in vivo and clinical trials): sensitive
13 | Cc1ncc(CO)c(C=NNC(=O)c2ccncc2)c1O [P1H, pyridoxal isonicotinoyl hydrazone] | – | – | – | – | – | – | – | anti-proliferative activity (tumor cell models): anti-proliferative activity
14 | C=C1C2CCC3(C)C(c4ccoc4)OC(=O)CC13OC1CC(O)C(C)(C)C(CC(=O)OC)C12C (stereo not drawn) [3-alpha-hydroxy-3-deoxyangolensic acid methyl ester] | Enhancer | 10902446 | 10997867 | Enhancer | Enhancer | 118263232 | 129330172 | –
15 | O=C(O)c1cn(C2CC2)c2cc(N3CCNCC3)c(F)cc2c1=O [ciprofloxacin] | – | – | – | – | – | – | – | knock-down efficiency of shRNA against luciferase mRNA [3]: increased the knock-down efficiency; siRNA-mediated mRNA degradation [3]: enhance siRNA-mediated mRNA degradation
16 | CC(=O)O[C@@H]1C[C@H]2C(C)(C)[C@@H](O)CC[C@]2(C)[C@H]2CC[C@]3(C)C(=CC(=O)O[C@H]3c3ccoc3)[C@@]21C [3-beta-Hyroxydeoxo-dihydrodeoxygedunin, 3-beta-hydroxydeoxodihydrodeoxygedunin] | Enhancer | 13998738 | 17430963 | Enhancer | Enhancer | 186574276 | 213530556 | –
17 | O=C1CC[C@]23/C=C/C(=O)NCCCCNCCCNC(=O)/C=C/c4ccc(c2c4)O[C@@H]3C1 [Lunarine] | Enhancer | 11171512 | 9353700 | Enhancer | Enhancer | 130354040 | 131010562 | –
18 | Nc1nc2[nH]cnc2c(=S)[nH]1 [Thioguanine] | Enhancer | 9228044.75 | 11903224.8 | Enhancer | Enhancer | 193528220 | 181033260 | –
19 | Cc1cc(=O)c2c(O)c3c(cc2o1)OCC(C)CC3 (stereo not drawn) [Dihydroptaeroxylin] | Enhancer | 17140237.8 | 26383349 | Enhancer | Enhancer | 194786588 | 215783848 | Clone#3, 293-EGFP-siGFP cells % GFP signal intensity with drug + RNAi-E/Control (no drug) [2, 5]: 59.4446%; Clone#3 293-EGFP-siGFP cells % GFP signal intensity with drug alone/Control (no drug) [2, 6]: 91.5009%; EGFP, 293-EGFP cells Control % (With RNAi-E) (EGFP, 293-EGFP cells; [5]): 95.4836%; EGFP, 293-EGFP cells Control % (Drug alone) (EGFP, 293-EGFP cells; [6]): 105.776%

Reference: patent US20120071539A1, “COMPOUNDS AND METHODS FOR MODULATING THE SILENCING OF A POLYNUCLEOTIDE OF INTEREST” (Emory University, priority 2006, published 2012)
